Test results as given in PubChem BioAssay (NCI).
Several values for one entry are separate records, joined by “and”; a condition that tells them apart may be missing. Identical values can stand only once.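 Cultured in 96-well plates, cells were exposed to test compound for 48 hours across five concentrations. TGI denotes the concentration required for complete inhibition of growth.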

How the values were obtained:
Experiment in all cases: inhibition of tumour cell growth, NCI panel, 48 h
OVCAR-8 ovarian = test system: OVCAR-8 ovarian
UACC-257 melanoma = test system: UACC-257 melanoma
DU-145 prostate = test system: DU-145 prostate
LOX IMVI melanoma = test system: LOX IMVI melanoma
NCI-H460 lung = test system: NCI-H460 lung
KM12 colon = test system: KM12 colon
SF-268 CNS = test system: SF-268 CNS
HS 578T breast = test system: HS 578T breast
MDA-MB-435 = test system: MDA-MB-435
IGROV1 ovarian = test system: IGROV1 ovarian

SMILES | TGI (OVCAR-8 ovarian) | TGI (UACC-257 melanoma) | TGI (DU-145 prostate) | TGI (LOX IMVI melanoma) | TGI (NCI-H460 lung) | TGI (KM12 colon) | TGI (SF-268 CNS) | TGI (HS 578T breast) | TGI (MDA-MB-435) | TGI (IGROV1 ovarian)
CO/N=C(\C)c1cccc(Nc2nc3ccccc3c3occc23)c1 | 33.4 µM | 3.69 µM | 30.8 µM | 31.6 µM | 29.6 µM | 24.5 µM | 32.5 µM | 27.2 µM | 25.4 µM | 
Nc1nc(OCC2CCCCC2)c2[nH]cnc2n1 | > 100 µM | 61.8 µM | > 64.3 µM | 37.7 µM | > 67.9 µM | > 100 µM | > 100 µM | > 44.5 µM | 60.7 µM | > 48.6 µM
O=C(NC(Cc1ccc(I)cc1)C(=O)O)c1ccc(Cl)cc1 (stereo not drawn) | > 100 µM | > 100 µM |  | > 100 µM | > 100 µM | > 100 µM | > 100 µM |  |  | > 100 µM
CCSc1nc(-c2cccs2)nc2ccc(I)cc12 | > 100 µM | > 100 µM | > 100 µM | > 100 µM | > 100 µM | > 100 µM | > 100 µM |  | > 100 µM | > 100 µM
CC1CC(Br)C(=O)O1 (stereo not drawn) | > 100 µM | > 100 µM | > 100 µM | > 100 µM | > 100 µM | > 100 µM | > 100 µM | > 100 µM | > 100 µM | > 100 µM
NCCNCCNc1ccc(NCCNCCN)c2c1C(=O)c1c(O)ccc(O)c1C2=O | > 100 µM | > 100 µM | > 100 µM | > 100 µM | > 100 µM | > 100 µM | > 100 µM | > 100 µM | > 100 µM | > 100 µM
c1ccc([P+](c2ccccc2)(c2ccccc2)c2ccc(-c3ccc([P+](c4ccccc4)(c4ccccc4)c4ccccc4)cc3)cc2)cc1 | 85.5 µM | 63 µM | > 100 µM | 51.9 µM | > 100 µM | > 100 µM | > 100 µM | > 100 µM | 84.5 µM | 13.4 µM
Cc1c2cc[n+](C)cc2c(C)c2c1oc1ccccc12 | 29.8 µM | 17.9 µM | 64.7 µM | 19.7 µM | 16.7 µM | 11.6 µM | 2.71 µM | 4.8 µM | 21.5 µM | 52.6 µM
O=C1OC2(OC2c2ccc(Cl)cc2)c2ccccc21 (stereo not drawn) | > 100 µM |  |  | 34 µM | > 100 µM | > 100 µM | > 100 µM |  |  | > 100 µM
CN(C)CCCN1c2ccc([N+](=O)[O-])cc2CCc2cc([N+](=O)[O-])ccc21 | 29.5 µM and 30 µM | 28.7 µM and 27.4 µM | 30.2 µM and 33 µM | 32.4 µM and 26.5 µM | 30 µM and 26.2 µM | 28.6 µM and 33.1 µM | 30.2 µM and 29 µM | 34.4 µM and 35.6 µM | 26.5 µM and 29.5 µM | 28.9 µM and 29.1 µM
COc1ccc2c(c1)/C(=C\c1c(Cl)n(-c3ccccc3)c3ccccc13)C(=O)N2 | > 100 µM | 50.8 µM | 21.4 µM | 92.7 µM | 68.2 µM | 14.7 µM | 20.3 µM | 5.28 µM |  | 27.9 µM
CCOC(=O)Nc1cc2c(c(N)n1)N=C(c1ccc3ccccc3c1)CN2 | 10.8 µM | > 100 µM | > 100 µM | 8.1 µM | 3.33 µM | 3.94 µM | > 86.1 µM | 3.16 µM | 0.338 µM | > 100 µM
C[N+](C)(C)CCN[N+]1(C)CCCc2ccccc21 (stereo not drawn) | > 100 µM | > 100 µM | > 100 µM | > 100 µM | > 100 µM | > 100 µM | > 100 µM | > 100 µM | > 100 µM | > 100 µM
COc1cc([N+](=O)[O-])ccc1NC(=O)c1cccc([N+](=O)[O-])c1O | > 100 µM | 63.7 µM |  | > 100 µM | > 100 µM | > 100 µM | > 100 µM |  |  | > 100 µM
CC1(C=O)CCC23COC4(CCC5C6(C)CCC(OC7OCC(OC8OC(CO)C(O)C(OC9OC(CO)C(O)C(O)C9O)C8OC8OCC(O)C(O)C8O)C(O)C7OC7OC(CO)C(O)C(O)C7O)C(C)(C)C6CCC5(C)C4(C)CC2O)C3C1 (stereo not drawn) | 1.48 µM |  | 2.77 µM |  | 2.55 µM | 1.42 µM | 2.47 µM | 2.99 µM |  | 2.88 µM
CS(=O)(=O)OCCN(CCOS(C)(=O)=O)c1ccc(/C=N/Nc2ncnc3nc[nH]c23)cc1 | 57.7 µM | 48.9 µM |  | 37.7 µM | 34.3 µM | 34.8 µM | 46.1 µM |  |  | 71.6 µM
Cc1ccc([N+](=O)[O-])cc1S(=O)(=O)Nc1ccc(C2=NOC(c3ccccc3O)C2)cc1 (stereo not drawn) | > 100 µM | > 100 µM | > 100 µM | > 100 µM | 25.3 µM | 38.2 µM | > 100 µM | > 100 µM | 3.22 µM | > 100 µM
O=c1c2cc(S(=O)(=O)O)ccc2nc(COc2ccc(Oc3ccc(Cl)cc3Cl)cc2)n1C(=S)Nc1ccc(Cl)cc1 | 55.3 µM | 60.5 µM | 87 µM | 32 µM | 35.8 µM | 71.4 µM | 31.3 µM | 44.8 µM | 39.3 µM | > 100 µM
O=C1CSC(c2ccccc2O)N1c1nc2cc3sc(N4C(=O)CSC4c4ccccc4O)nc3cc2s1 (stereo not drawn) | > 100 µM | > 77.5 µM | > 100 µM | > 100 µM | > 33.6 µM | > 100 µM | > 100 µM | > 100 µM | > 100 µM | > 100 µM
N=C(N)SCc1cccc([N+](=O)[O-])c1 | > 67 µM | > 75 µM |  | > 100 µM | > 100 µM | > 31.6 µM | > 100 µM |  |  | > 100 µM
O=C1N(CN2CCOCC2)CN(CN2CCOCC2)C(=O)N1Cc1ccc(CN2C(=O)N(CN3CCOCC3)CN(CN3CCOCC3)C2=O)cc1 | > 100 µM | > 100 µM | > 100 µM | 76.4 µM | > 100 µM | > 100 µM | > 100 µM | > 100 µM | > 100 µM | > 100 µM
